Source: patent publication US20230076415A1, “METHODS AND COMPOSITIONS FOR TREATING MELANOMA” (INSERM (INSTITUT NATIONAL DE LA SANTÉ ET DE LA RECHERCHE …, priority 2020, published 2023)

Experiments:
[1] = tested on: A375 cells; test: Western blot analysis of A375 cells; type: cell-based, human; conditions: data not shown
Source text: Culture reagents and DAPI were purchased from Thermo Fischer Scientific. Vemurafenib (PLX4032) and Trametinib (GSK1120212) were from Selleckchem. Chemicals, cycloheximide (CHX), 8TQ and puromycin were from Merck Millipore. The antibodies used for western blotting were as follow: PSMD14 (Generon), HSP90, p53 (Santa Cruz Biotechnology), K48-linkage specific polyubiquitin (D9D5), p21, CDK2, PARP, cleaved caspase 3, phospho-Thr202/Tyr204 Erk1/2 (Cell Signaling Technology), phospho-Ser139 H2AX (BioLegend). Alexa Fluor TexasRed-conjugated secondary antibodies were from ThermoFisher Scientific.

[2] = tested on: A375Riv human melanoma cells; test: BRAFi-resistant A375Riv xenografts; type: in vivo; conditions: A375Riv xenografts in nude mice, 8TQ 10 mg/kg i.p. vs vehicle
Experimental: (§1) FIG. 5. Targeting PSMD14 overcomes resistance to MAPK pathway inhibition. A) Melanoma cell lines resistant to BRAFi (A375RIV, M229R, M238R and M249R) or double resistant to BRAFi and MEKi (A375DDR) were transfected with siCTRL or siPSMD14 #1. After 72h, cell colonies were stained with crystal violet and the absorbance at 595 nm was measured. Box plots show the upper/lower quartile and the median with whiskers from min to max values (n=3, ***P<0.001). B) The above panel of melanoma cells was treated with increasing doses of 8TQ. After 72h, cells were labeled and analyzed. The corresponding IC50 of 8TQ was determined. Box plots indicate the upper/lower quartile and the median with whiskers from min to max values from 2 experiments performed in triplicate. C) 1×10^6 A375Riv human melanoma cells were implanted into both flanks of nude mice. After 2 days, mice were injected i.p every day with 8TQ (10 mg/kg) or vehicle. The tumor size was measured with a caliper and the tumor volume was determined. Data shown are mean±SD of tumor volume (n=12; ***, ***P<0.001, 2way ANOVA).
All mouse experiments were carried out in accordance with the Institutional Animal Care and the local ethics committee (CIEPAL-Azur agreement NCE/2018-509). […] The tumor size was measured with a caliper and the tumor volume was determined using the formula: Volume=(length×Width2)/2. […]

[3] = tested on: A375RIV, M229R, M238R, M249R and A375DDR melanoma cells; test: Viability of BRAFi- and BRAFi/MEKi-resistant melanoma cells treated with 8TQ; type: cell-based, human
Experimental: as §1
(§2) After 24 to 48h of treatment, cell viability was evaluated by flow cytometry following staining with Annexin-V-FITC and propidium iodide (PI) (ThermoFisher Scientific) as previously described (27). The percentage of dead cells (Annexin-V-FITC+ and PI+ cells) was then determined. […]

[4] = tested on: Yumm1.7 murine melanoma cells (BrafV600E/Pten null/cdkn2a null); test: Yumm1.7 syngeneic melanoma model; type: in vivo, C57Bl/6J mice
Experimental: (§3) FIG. 4. The PSMD14 inhibitor 8TQ inhibits tumor growth in melanoma syngeneic models. A) 2×10^5 murine melanoma cells Yumm1.7 (derived from BrafV600E/Pten null/cdkn2a null mice) were subcutaneously inoculated into both flanks of 6-week old C57Bl/6J female mice. After one week, mice were injected i.p 3 times per week with 8TQ (10 mg/kg) or vehicle. The tumor size was measured with a caliper and the tumor volume was determined. Data shown are mean±SD of tumor volume (n=12; ***, ***P<0.001, 2way ANOVA). B) 4×105 murine melanoma MaNRas (NRasQ61K) were subcutaneously injected into both flanks of 6-week old C57Bl/6J female mice. After two weeks, mice were injected i.p every two days with 8TQ (10 mg/kg) or vehicle. The tumor size was measured with a caliper and the tumor volume was determined. Data shown are mean±sd of tumor volume (n=12; ***, ***P<0.001, 2way ANOVA).
Slices (4 μm) from paraffin-embedded tumors sections were Tissue sections were processed for dewaxing, rehydration and antigenic heat unmasking using the PT Module Lab Vision™ (ThermoFisher Scientific) according to the manufacturer's instructions. Tissue sections were then labelled with primary antibodies diluted in 1% BSA (wt/vol) followed by standard avidin-biotin-peroxidase staining (Vector Laboratories) using the automated staining system Myreva SS30 (Microm Microtech, France). Primary antibodies were as follows: phospho-H2AX (Merck Millipore), Ki67 (Agilent Dako), cleaved caspase 3 (Cell Signaling Technology).
All mouse experiments were carried out in accordance with the Institutional Animal Care and the local ethics committee (CIEPAL-Azur agreement NCE/2018-509). The animals were maintained on a 12h light/dark cycle in a temperature-controlled facility at 22° C. and were provided with free access to food (standard laboratory chow diet from UAR). For melanoma xenografts, 2×106 BRAF inhibitor resistant A375Riv human melanoma cells were subcutaneously implanted into both flanks of 6 week old athymic nude nu/nu female mice (Envigo). For melanoma syngeneic models, 2 to 4 105 of Yumm1.7 or MaNras murine melanoma cells were subcutaneously inoculated into 6 week old C57Bl/6J female mice (Envigo). When tumors became palpable (0.05 to 0.1 cm3), mice were injected intraperitoneally once every other day with vehicle or 10 mgkg-1 8TQ in a 90:9:1 (v/v/v) mixture of Labrafil, dimethylacetamide, and Tween 80. The tumor size was measured with a caliper and the tumor volume was determined using the formula: Volume=(length×Width2)/2. At the end of the experiment, mice were sacrificed and tumors dissected, weighed, fixed and embedded in paraffin for IHC analysis.

[5] = tested on: A375 cells; test: Survival analysis (crystal violet staining) of A375 cells treated with 8TQ; type: cell-based; conditions: Homo sapiens, A-375, increasing doses of 8TQ, 72h, read-out: calculated IC50 for 8TQ
Experimental: (§4) FIG. 3. Pharmacological inhibition of PSMD14 impairs melanoma cell survival. A) Survival analysis performed on A375 cells treated with vehicle or increasing doses of 8TQ (0.27, 0.9, 3 μM). After 72h, cells were stained with crystal violet. Right, cell viability was quantified on lysates by analyzing crystal violet staining at 595 nm. Histograms represent the mean±SD of three independent experiments in duplicate (***P<0.001; ns, non significant). B) Effect of PSMD14 inhibition on melanoma cell viability. A375 cells were treated with vehicle or increasing doses of 8TQ (0.27, 0.9, 3 μM). After 72h, cells were stained with Annexin V-FITC and DAPI and analysed by flow cytometry. Histograms show the percentage of cell death (Annexin V and DAPI positive cells) (mean±SEM, n=3). The calculated mean IC50±sem is shown. (** P<0.005, ***P<0.001). C) A subset of melanoma cells was treated with increasing doses of 8TQ. After 72h, cells were labeled and analyzed as in b). The corresponding IC50 of 8TQ was determined by measuring cell viability. Box plots indicating the upper/lower quartile and the median with whiskers from min to max values from 2 experiments performed in triplicate.
After treatment, cells were fixed in PFA 3% during 20 min, washed with PBS and stained with crystal violet 0.4% in ethanol 20% for 30 min. After washing, crystal violet was solubilized from fixed cells. […]

[6] = tested on: 501Mel and A375 melanoma cells; test: Phosphorylated H2AX after 8TQ; type: cell-based, human; conditions: increased doses of 8TQ, 48h, data not shown
Experimental: For phospho-H2AX (pH2AX) foci staining, cells grown on coverslips or culture dishes were fixed with 4% paraformaldehyde and permeabilized in 50 mM Tris-HCl, pH 7.4, 150 mM NaCl, 0.3% Triton X-100 for 1 h at 4° C. Cells were then blocked in 50 mM Tris-HCl, pH 7.4, 150 mM NaCl, 0.03% Triton X-100, 1% BSA for 1 h at 37° C., and stained with anti-phospho-Ser139 H2AX (1:1000, Merck Millipore #05-636) at 4° C. overnight. After extensive washings, cells were stained with Alexa Fluor TexasRed-conjugated secondary antibodies and 10 μg/ml DAPI for 1 h at room temperature. After washing, cells were mounted with ProLong Gold Antifade Mounting Oil (Thermo Fischer Scientific). The percentage of cells positive for phospho-H2AX foci was determined by analyzing 200 randomly chosen cells and the foci-positive cells were defined as nuclei with at least one large focus or a granular pattern of fluorescence.

[7] = tested on: human (M099, M029, Sbcl2, 501Mel, WM9 and MEWO) and murine (Yumm1.7 and MaNras) melanoma cell lines; test: IC50 of 8TQ on a collection of melanoma cell lines and short-term cultures; type: cell-based
Experimental: as §4, with “Box plots indicating the upper/lower quartile and the median with whiskers from min to max values from 2 experiments performed in triplicate.” left out
as §2

[8] = tested on: A375 cells; test: Cell death by Annexin V-FITC/DAPI flow cytometry; type: cell-based, human; conditions: 8TQ 0.27, 0.9, 3 μM, 72h
Experimental: FIG. 2. PSMD14 depletion has a potent cytotoxic effect on melanoma cells. A) Experimental validation of the siDUB screening on melanoma cell proliferation. 501Mel and A375 melanoma cells were plated 10,000 cells/well in a 24-well plate and transfected with a control siRNA (siCTRL) or 3 different siRNA sequences targeting PSMD14 (siPSMD14 #1, #2 and #3). Cell confluence was imaged for 48 h using the IncuCyte Zoom live imaging system. Curves represent normalized cell proliferation of each siRNA relative to siCTRL. Data are the mean±SEM (n=3). ***P<0.001, 2-way ANOVA analysis. B) Colony survival analysis after PSMD14 depletion (siPSMD14 #1, #2 and #3) compared to control siRNA (siCTRL). 501Mel and A375 cells were transfected with siRNAs, re-seeded at 2,000 cells/well and grown for 1 week. Colonies were stained with crystal violet. […] Box plots show the mean±SEM of crystal violet quantification relative to siCTRL (n=3, ***P<0.001.). […] After 72h, cells were labeled with Annexin V-FITC and DAPI and analysed by flow cytometry. […]
FIG. 3. […] Right, cell viability was quantified on lysates by analyzing crystal violet staining at 595 nm. […] After 72h, cells were stained with Annexin V-FITC and DAPI and analysed by flow cytometry. […] The calculated mean IC50±sem is shown. […] After 72h, cells were labeled and analyzed as in b). The corresponding IC50 of 8TQ was determined by measuring cell viability. […]

[9] = tested on: MaNRas murine melanoma cells (NRasQ61K); test: MaNRas syngeneic melanoma model; type: in vivo; conditions: 8TQ 10 mg/kg i.p. vs vehicle, C57Bl/6J mice
Experimental: as §3
All mouse experiments were carried out in accordance with the Institutional Animal Care and the local ethics committee (CIEPAL-Azur agreement NCE/2018-509). The animals were maintained on a 12h light/dark cycle in a temperature-controlled facility at 22° C. and were provided with free access to food (standard laboratory chow diet from UAR). […] The tumor size was measured with a caliper and the tumor volume was determined using the formula: Volume=(length×Width2)/2. […]

[10] = Yumm1.7 tumors, vs vehicle, data not shown
[11] = immunostaining on tumor sections, data not shown

**Q.** With `Sc1cccc2cccnc12` [8TQ, quinoline-8-thiol] as the compound, how does the “accumulation of poly-ubiquitinated proteins” value [1] read?
**A.** Its value is “induced the accumulation”.

**Q.** And the “expression of cleaved PARP” value [1]?
**A.** The value was “induced”.

**Q.** And the “expression of cleaved caspase-3” value [1]?
**A.** Its value is “induced”.

**Q.** And the tumor development [2]?
**A.** The tumor development was “dramatically abrogated”.

**Q.** And the “viability of BRAFi- and BRAFi/MEKi-resistant cells” value ([3]; doses of 8TQ, 72h)?
**A.** Its value is “potently decreased”.

**Q.** What about the “IC50 of 8TQ” value ([3]; resistant cells compared with parental counterparts) of the same compound?
**A.** The value was “in the same μM range”.

**Q.** And the Yumm1.7 tumor growth ([4]; 8TQ 10 mg/kg i.p. vs vehicle, C57Bl/6J mice)?
**A.** Its Yumm1.7 tumor growth is “significantly decreased”.

**Q.** What about the “tumor size at the experiment endpoint” value [4, 10] of the same compound?
**A.** The value was “markedly reduced”.

**Q.** And the “tumor weight at the experiment endpoint” value [4, 10]?
**A.** Its value is “markedly reduced”.

**Q.** And the “staining of the apoptosis marker cleaved caspase 3” value [4, 11]?
**A.** The value was “increased staining”.

**Q.** And the “staining of the cell proliferation marker Ki67” value [4, 11]?
**A.** The value was “decreased staining”.

**Q.** What about the IC50 [5] of the same compound?
**A.** The IC50 was 660 nM.

**Q.** What about the “expression of phosphorylated H2AX” value [6] of the same compound?
**A.** Its value is “elevated expression”.

**Q.** And the IC50 ([7]; collection of human and murine melanoma cell lines and short-term cultures, 72h)?
**A.** Its IC50 is 250 to 750 nM.

**Q.** And the melanoma cell viability ([7]; irrespective of the mutational status or the disease stage)?
**A.** Its melanoma cell viability is “markedly inhibited”.

**Q.** What about the “apoptotic cell death (Annexin V-FITC/DAPI staining)” value [8] of the same compound?
**A.** The value was “dose-dependent increase”.

**Q.** What about the MaNRAS tumor growth [9] of the same compound?
**A.** Its MaNRAS tumor growth is “significantly decreased”.
